The text below walks through data of patent publication US20140030368A1, “COMPOSITION FOR PREVENTING OR TREATING A RESPIRATORY DISEASE CONTAINING A MIXED HERBAL EXTRACT OF CNIDIUM OFFICINALE ROOT AND POLYGONI CUSPIDATI ROOT” (WHANIN PHARMACEUTICAL CO., LTD., priority 2011, published 2014).

As usually defined, the inhibition is the share of the control response that was lost under treatment.

Assay [1] has as its system co-stimulatory molecules CD40, CD80, CD86 and MHCII. Description: Co-stimulatory molecules in lung dendritic cells, E. coli-EV-induced model (FACS). The following applies: 1 mg/kg twice a day, FIG. 5. Format: in vivo, mice. The procedure: In order to examine whether the extract of the present invention has the effect of inhibiting the expression of co-stimulatory molecules in dendritic cells isolated from the lung tissue of an E. coli-EV-induced asthma/chronic obstructive pulmonary disease model, the following test was performed.
Specifically, a portion of the lung tissue obtained in Test Example 8-4 was cut finely with a blade, and then incubated with 5 ml of 1× Trypsin-EDTA and 1000 units of collagenase at 37 °C for 10 minutes. Then, the tissue was passed through a 100 μm mesh to collect only immune cells, and the cells were double-stained with each of the dendritic cell marker CD11c and the co-stimulatory molecules CD40, CD80, CD86 and MHCII (major histocompatibility complex II). Next, the expression levels of the co-stimulatory molecules in the dendritic cells were measured using FACS (fluorescence activated cell sorter), and the results of the measurement are shown in FIG. 5.

Assay [2] concerns the target T1, 5-lipoxygenase (Rattus norvegicus, UniProt P12527).
T1 construct: rat basophilic leukemia cells (RBL-1) were stabilized using serum-free RPMI medium; endogenous in cells; host or cells: RBL-1 (rat basophilic leukemia cells)
Description: 5-Lipoxygenase inhibitory activity (leukotriene production in RBL-1 cells, cysteinyl leukotriene EIA). The assay is classed as cell-based. The following applies: 2 μM; RBL-1 cells; read-out: 5-lipoxygenase inhibition rate(%). The procedure:
Specifically, rat basophilic leukemia cells (RBL-1) were stabilized using serum-free RPMI medium at 37° C., and each of the extracts and arachidonic acid as a substrate were added thereto and incubated for 15 minutes to produce leukotriene. The amount of the produced leukotriene was measured using a cysteinyl leukotriene EIA kit. As comparative drugs, the 5-lipoxygenase inhibitors zileuton and montelukast were used.

The subject of assay [3] is airway constriction of the sensitized guinea pigs. Description: Test for airway constriction inhibition (in vivo), airway resistance AUC after ovalbumin aerosol. The following applies: oral dose 10 mg/kg.

T1 sequence (P12527 whole entry): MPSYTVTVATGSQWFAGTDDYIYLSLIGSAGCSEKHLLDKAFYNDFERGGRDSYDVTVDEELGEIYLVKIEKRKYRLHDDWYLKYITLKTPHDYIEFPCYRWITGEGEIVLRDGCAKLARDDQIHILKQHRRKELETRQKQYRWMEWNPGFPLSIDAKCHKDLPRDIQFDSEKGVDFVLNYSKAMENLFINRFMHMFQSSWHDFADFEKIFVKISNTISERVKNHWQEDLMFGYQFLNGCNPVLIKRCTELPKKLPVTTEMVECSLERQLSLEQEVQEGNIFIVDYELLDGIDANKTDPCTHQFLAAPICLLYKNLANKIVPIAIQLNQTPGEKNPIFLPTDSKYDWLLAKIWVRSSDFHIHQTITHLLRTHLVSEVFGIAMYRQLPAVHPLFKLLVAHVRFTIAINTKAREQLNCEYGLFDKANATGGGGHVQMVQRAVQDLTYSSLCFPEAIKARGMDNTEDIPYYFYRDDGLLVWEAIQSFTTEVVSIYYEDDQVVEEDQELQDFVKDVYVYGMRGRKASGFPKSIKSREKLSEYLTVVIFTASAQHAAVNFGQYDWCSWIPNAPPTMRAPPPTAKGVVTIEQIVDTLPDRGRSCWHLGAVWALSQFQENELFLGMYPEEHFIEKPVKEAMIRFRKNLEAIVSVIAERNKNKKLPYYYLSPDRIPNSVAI

For the compound `C[C@@H]1C[C@H]2[C@@H]3CCC4=CC(=O)C=C[C@]4(C)[C@@]3(F)[C@@H](O)C[C@]2(C)[C@@]1(O)C(=O)CO` [Dexamethason, dexamethason], the “expression levels of the co-stimulatory molecules in the dendritic cells” value in assay [1] was “a decrease in the expression of CD86 and MHCII”.

For `CC(C)(O)c1ccccc1CC[C@@H](SCC1(CC(=O)O)CC1)c1cccc(/C=C/c2ccc3ccc(Cl)cc3n2)c1` [montelukast], in assay [2], the inhibition at 2 µM came out at 45%. Further, the “Airway constriction inhibition rate (%)” value in assay [3] was found to be 53%.
